Data: patent US20100298141A1, “SUBSTITUTED PYRIDINE N-OXIDE HERBICIDES” (E. I. DU PONT DE NEMOURS AND COMPANY, priority 2007, published 2010)

Key:
broadleaf signalgrass = experiment: Test G preemergence test; format: in vivo, Brachiaria platyphylla; conditions: scale 0 to 100
windgrass [1] = experiment: Test D preemergence test; format: in vivo, Apera spica-venti; conditions: scale 0 to 100
In short: (§1)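 Test chemicals, formulated in a surfactant-containing non-phytotoxic solvent mixture, are applied preemergence after the seeds are planted. Entries shown as a dash mean no result was obtained.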

eastern black nightshade = experiment: Test G preemergence test; format: in vivo, Solanum ptycanthum; conditions: scale 0 to 100
large crabgrass = experiment: Test G preemergence test; format: in vivo, Digitaria sanguinalis; conditions: scale 0 to 100
millet = experiment: Test G preemergence test; format: in vivo, Panicum miliaceum; conditions: scale 0 to 100
fall panicum = experiment: Test G preemergence test; format: in vivo, Panicum dichotomiflorum; conditions: scale 0 to 100
windgrass [2] = experiment: Test C pre-/postemergence test; format: in vivo, Apera spica-venti; conditions: Postemergence; for Plant response rating, Windgrass: scale 0 to 100, 0 no effect, 100 complete control
green foxtail = experiment: Test D preemergence test; format: in vivo, Setaria viridis; conditions: scale 0 to 100
In short: as §1

lambsquarters = experiment: Test G preemergence test; format: in vivo, Chenopodium album; conditions: scale 0 to 100
canarygrass = experiment: Test C postemergence test; format: in vivo, Phalaris minor; conditions: for Plant response rating, Canarygrass: scale 0 to 100, 0 no effect, 100 complete control
In short: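 Postemergence sprays of formulated test chemicals on plants 2 to 18 cm tall (1- to 4-leaf stage). Greenhouse hold for 13 to 15 days, then visual rating of each species against untreated controls; dash means no test result.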

giant foxtail = experiment: Test G preemergence test; format: in vivo, Setaria faberii; conditions: scale 0 to 100
cotton = experiment: Test G preemergence test; format: in vivo, Gossypium hirsutum; conditions: scale 0 to 100
common chickweed = experiment: Test F preemergence test; format: in vivo, Stellaria media; conditions: scale 0 to 100
In short: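 Compound in a non-phytotoxic solvent blend with surfactant is applied preemergence to planted seeds or postemergence to sugarcane plants. Plants and controls stay in the greenhouse 14 to 21 days before visual comparison.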

Cn1nc(C(F)(F)F)c(C[S+]([O-])c2cccc[n+]2[O-])c1OC(F)F (stereo not shown) [Compound 3]
65: Plant response rating, Nightshade (eastern black nightshade; 125 g ai/ha)
100: Plant response rating, Windgrass (windgrass [1]; 125 g ai/ha) | Plant response rating, Windgrass (windgrass [1]; 250 g ai/ha) | Plant response rating, Nightshade (eastern black nightshade; 250 g ai/ha) | Plant response rating, Crabgrass, Large (large crabgrass; 125 g ai/ha) | Plant response rating, Crabgrass, Large (large crabgrass; 250 g ai/ha) | Plant response rating, Foxtail, Green (green foxtail; 250 g ai/ha) | Plant response rating, Lambsquarters (lambsquarters; 125 g ai/ha) | Plant response rating, Lambsquarters (lambsquarters; 250 g ai/ha) | Plant response rating, Foxtail, Giant (giant foxtail; 125 g ai/ha) | Plant response rating, Foxtail, Giant (giant foxtail; 250 g ai/ha) | Chickweed plant response rating (common chickweed; 62 g ai/ha, Preemergence) | Plant response rating, Chickweed (common chickweed; Preemergence, 31 g ai/ha)
70: Plant response rating, Windgrass (windgrass [2]; 250 g ai/ha)
10: Plant response rating, Cotton (cotton; 125 g ai/ha)
75: Plant response rating, Windgrass (windgrass [1]; 62 g ai/ha) | Plant response rating, Foxtail, Giant (giant foxtail; 62 g ai/ha)
60: Plant response rating, Signalgrass (broadleaf signalgrass; 125 g ai/ha) | Plant response rating, Nightshade (eastern black nightshade; 62 g ai/ha) | Plant response rating, Crabgrass, Large (large crabgrass; 62 g ai/ha) | Plant response rating, Foxtail, Green (green foxtail; 125 g ai/ha)
98: Plant response rating, Chickweed (common chickweed; Preemergence, 16 g ai/ha)
0: Plant response rating, Signalgrass (broadleaf signalgrass; 31 g ai/ha) | Plant response rating, Windgrass (windgrass [1]; 31 g ai/ha) | Plant response rating, Nightshade (eastern black nightshade; 31 g ai/ha) | Plant response rating, Crabgrass, Large (large crabgrass; 31 g ai/ha) | Plant response rating, Millet (millet; 31 g ai/ha) | Plant response rating, Millet (millet; 62 g ai/ha) | Plant response rating, Fall Panicum (fall panicum; 31 g ai/ha) | Plant response rating (0 to 100), Windgrass (windgrass [2]; 31 g ai/ha) | Plant response rating (0 to 100), Windgrass (windgrass [2]; 62 g ai/ha) | Plant response rating, Foxtail, Green (green foxtail; 31 g ai/ha) | Plant response rating, Lambsquarters (lambsquarters; 31 g ai/ha) | Plant response rating, Lambsquarters (lambsquarters; 62 g ai/ha) | Plant response rating (0 to 100), Canarygrass (canarygrass; 31 g ai/ha) | Plant response rating, Canarygrass (canarygrass; 62 g ai/ha) | Plant response rating, Canarygrass (canarygrass; 125 g ai/ha) | Plant response rating, Canarygrass (canarygrass; 250 g ai/ha) | Plant response rating, Foxtail, Giant (giant foxtail; 31 g ai/ha) | Plant response rating, Cotton (cotton; 31 g ai/ha) | Plant response rating, Cotton (cotton; 62 g ai/ha)
40: Plant response rating, Fall Panicum (fall panicum; 62 g ai/ha)
15: Plant response rating, Millet (millet; 125 g ai/ha)
25: Plant response rating, Cotton (cotton; 250 g ai/ha) | Plant response rating, Chickweed (common chickweed; 8 g ai/ha, preemergence)
90: Plant response rating, Millet (millet; 250 g ai/ha) | Plant response rating, Fall Panicum (fall panicum; 125 g ai/ha)
95: Plant response rating, Signalgrass (broadleaf signalgrass; 250 g ai/ha) | Plant response rating, Fall Panicum (fall panicum; 250 g ai/ha)
45: Plant response rating, Signalgrass (broadleaf signalgrass; 62 g ai/ha)
20: Plant response rating, Windgrass (windgrass [2]; 125 g ai/ha)
35: Plant response rating, Foxtail, Green (green foxtail; 62 g ai/ha)
